Consider 23 molecules from US20060217294A1, “Compounds binding to p-selectin” (YAMANOUCHI EUROPE B.V., priority 2002, published 2006).

Numbered stars: 1 amine (or outer) side, 2 acyl side, 3 side chain; on linkers, the order of the positions; unused ones are H or OH. Square brackets hold non-standard residues; d marks the D form. Peptide text beside a SMILES is read from it. * marks the point of attachment. Trimesoyl = O=C(c1cc(C(=O)[*:2])cc(C(=O)[*:3])c1)[*:1]; Thiophene2carbonyl = O=C(c1cccs1)*; 1Naphthoyl = O=C(c1cccc2ccccc12)*; Galloyl = O=C(c1cc(O)c(O)c(O)c1)*; Trx = NC[C@H]1CC[C@H](C(=O)O)CC1; 4Amb = NCc1ccc(C(=O)O)cc1; 4Abz = Nc1ccc(C(=O)O)cc1; Butyryl = CCCC(=O)*; Bz = O=C(c1ccccc1)*; X1 = CN(C)CCCC(=O)*; Ahx = NCCCCCC(=O)O; GABA = NCCCC(=O)O

For one assay, the target named is T1, human P-selectin (Homo sapiens, UniProt P16109).
T1 construct: IgG-Fc (fusion partner); purchased R&D Systems Europe Ltd., Abingdon, United Kingdom
T1 sequence (P16109 with tags, fused parts or gaps limits assumed): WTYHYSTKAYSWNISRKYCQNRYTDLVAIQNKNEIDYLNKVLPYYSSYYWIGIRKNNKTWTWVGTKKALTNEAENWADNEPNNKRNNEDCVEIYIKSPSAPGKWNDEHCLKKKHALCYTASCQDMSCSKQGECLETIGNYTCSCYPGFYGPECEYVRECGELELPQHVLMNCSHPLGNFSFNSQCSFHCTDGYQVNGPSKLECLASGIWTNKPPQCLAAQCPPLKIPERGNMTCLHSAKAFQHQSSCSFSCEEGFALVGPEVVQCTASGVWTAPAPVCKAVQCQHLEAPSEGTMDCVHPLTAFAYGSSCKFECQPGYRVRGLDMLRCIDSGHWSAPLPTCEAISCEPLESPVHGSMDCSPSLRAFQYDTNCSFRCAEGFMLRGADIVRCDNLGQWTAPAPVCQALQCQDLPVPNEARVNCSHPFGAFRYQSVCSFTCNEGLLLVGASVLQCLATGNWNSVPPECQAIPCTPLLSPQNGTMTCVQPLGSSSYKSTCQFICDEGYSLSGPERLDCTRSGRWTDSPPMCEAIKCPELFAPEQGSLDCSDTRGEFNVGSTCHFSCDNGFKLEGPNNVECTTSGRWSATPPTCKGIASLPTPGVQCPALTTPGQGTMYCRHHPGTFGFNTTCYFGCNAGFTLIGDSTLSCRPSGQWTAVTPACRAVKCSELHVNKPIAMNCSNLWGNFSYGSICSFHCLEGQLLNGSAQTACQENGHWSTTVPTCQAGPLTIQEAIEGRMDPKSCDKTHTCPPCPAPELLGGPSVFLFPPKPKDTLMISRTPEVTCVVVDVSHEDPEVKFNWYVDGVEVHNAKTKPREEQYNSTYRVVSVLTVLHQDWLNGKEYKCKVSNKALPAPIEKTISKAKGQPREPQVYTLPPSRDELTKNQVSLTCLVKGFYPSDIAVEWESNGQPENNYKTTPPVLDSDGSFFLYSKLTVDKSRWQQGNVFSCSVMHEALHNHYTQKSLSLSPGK
The assay is described as follows: Competition assay with TM11-PO (competition ELISA). The format is binding. The note with it: Table 1; derivatised peptides HPij; inhibition of TM11-PO binding to human P-selectin; read-out: IC50. The method, then:
Compounds according to the invention, as prepared in examples 1, 2 and 3 and some reference peptide compounds were assayed for its ability to inhibit TM11-PO binding to human P-selectin. […] For competition studies, a 96 wells microtiter plate (high binding, flat bottom, Costar, Corning, U.S.A.) was coated overnight at 4° C. with 10 μg/ml goat anti-human IgG (Fc specific) (Sigma-Aldrich, Zwijndrecht, the Netherlands) in coating buffer (50 mM NaHCO3, pH 9.6). Subsequently, wells were washed with assay buffer and incubated for 1 hour at 37° C. with blocking buffer (3% BSA in assay buffer). After washing with assay buffer, the wells were incubated for 2 hours at 37° C. with the human P-selectin IgG-Fc chimera (R&D Systems Europe Ltd., Abingdon, United Kingdom) (0.3 μg/ml). Subsequently, wells were washed with assay buffer and incubated for 1 hour at 4° C. with the TM11-PO complex. The wells were washed six times with washing buffer (0.1% Tween 20 in assay buffer). […] (TMB)/hydrogen peroxide (H2O2) (Pierce, Rochford, U.S.A.) was added and wells were incubated at room temperature for 15 minutes. The reaction was halted by addition of 2 M H2SO4 and the absorbance was measured at 450 nm.
(In an ELISA, binding on a coated surface is turned into a signal by an enzyme label.)
As for `CC(C)[C@H](NC(=O)[C@H](CC(=O)O)NC(=O)[C@@H](NC(=O)[C@H](Cc1c[nH]c2ccccc12)NC(=O)[C@@H](N)CCC(=O)O)C(C)C)C(=O)N[C@@H](CCCCNC(=O)c1cc(O)c(O)c(O)c1)C(=O)NCCCC(=O)O` [HP06] (H-EWVDVK(Galloyl)[GABA]-OH), the IC50 was 6 µM. The same measure, in the same setting: with `CC(C)[C@H](NC(=O)[C@H](CC(=O)O)NC(=O)[C@@H](NC(=O)[C@H](Cc1c[nH]c2ccccc12)NC(=O)[C@H](CCC(=O)O)NC(=O)c1cc(C(=O)O)cc(C(=O)O)c1)C(C)C)C(=O)N[C@@H](CCCCNC(=O)c1cccc2ccccc12)C(=O)NCCCC(=O)O` [HP14] (Trimesoyl-EWVDVK(1Naphthoyl)[GABA]-OH) the figure was 1.02 µM; with `CC(C)[C@H](NC(=O)[C@H](CC(=O)O)NC(=O)[C@@H](NC(=O)[C@H](Cc1c[nH]c2ccccc12)NC(=O)[C@H](CCC(=O)O)NC(=O)c1cc(C(=O)O)cc(C(=O)O)c1)C(C)C)C(=O)N[C@@H](CCCCNC(=O)c1cc(O)c(O)c(O)c1)C(=O)NCCCC(=O)O` [HP16] (Trimesoyl-EWVDVK(Galloyl)[GABA]-OH), 0.31 µM; with `CC(C)[C@H](NC(=O)[C@H](CC(=O)O)NC(=O)[C@@H](NC(=O)[C@H](Cc1c[nH]c2ccccc12)NC(=O)[C@H](CCC(=O)O)NC(=O)c1cc(C(=O)O)cc(C(=O)O)c1)C(C)C)C(=O)N[C@@H](CCCCNC(=O)c1ccccc1)C(=O)NCCCC(=O)O` [HP17] (Trimesoyl-EWVDVK(Bz)[GABA]-OH), 0.45 µM. `CC(C)[C@H](NC(=O)[C@H](CC(=O)O)NC(=O)[C@@H](NC(=O)[C@H](Cc1c[nH]c2ccccc12)NC(=O)[C@H](CCC(=O)O)NC(=O)c1cc(O)c(O)c(O)c1)C(C)C)C(=O)N[C@@H](CCCCN)C(=O)NCCCC(=O)O` [HP60] (Galloyl-EWVDVK[GABA]-OH): the IC50 came to 1.1 µM. In the case of `CC(C)[C@H](NC(=O)[C@H](CC(=O)O)NC(=O)[C@@H](NC(=O)[C@H](Cc1c[nH]c2ccccc12)NC(=O)[C@H](CCC(=O)O)NC(=O)c1cc(O)c(O)c(O)c1)C(C)C)C(=O)N[C@@H](CCCCNC(=O)c1cc(C(=O)O)cc(C(=O)O)c1)C(=O)NCCCC(=O)O` [HP61] (Galloyl-EWVDVK(Trimesoyl)[GABA]-OH), the 50% inhibitory concentration (IC50) came out at 0.19 µM. Turning to `CC(C)[C@H](NC(=O)[C@H](CC(=O)O)NC(=O)[C@@H](NC(=O)[C@H](Cc1c[nH]c2ccccc12)NC(=O)[C@H](CCC(=O)O)NC(=O)c1cc(O)c(O)c(O)c1)C(C)C)C(=O)N[C@@H](CCCCNC(=O)CCCN(C)C)C(=O)NCCCC(=O)O` [HP62] (Galloyl-EWVDVK(X1)[GABA]-OH), the IC50 amounted to 0.28 µM. On the same count and under the same terms, with `CC(C)[C@H](NC(=O)[C@H](CC(=O)O)NC(=O)[C@@H](NC(=O)[C@H](Cc1c[nH]c2ccccc12)NC(=O)[C@H](CCC(=O)O)NC(=O)c1cc(O)c(O)c(O)c1)C(C)C)C(=O)N[C@@H](CCCCNC(=O)c1cccs1)C(=O)NCCCC(=O)O` [HP63] (Galloyl-EWVDVK(Thiophene2carbonyl)[GABA]-OH) the figure was 3.4 µM; with `CCCC(=O)NCCCC[C@H](NC(=O)[C@@H](NC(=O)[C@H](CC(=O)O)NC(=O)[C@@H](NC(=O)[C@H](Cc1c[nH]c2ccccc12)NC(=O)[C@H](CCC(=O)O)NC(=O)c1cc(O)c(O)c(O)c1)C(C)C)C(C)C)C(=O)NCCCC(=O)O` [HP65] (Galloyl-EWVDVK(Butyryl)[GABA]-OH), 2.35 µM.

The assay is the same for the next values; noted with them: Table 2; average of at least 3 experiments at 8 concentrations, TM11-PO competition ELISA; read-out: IC50 for human P-selectin as determined by competition Elisa.
Turning to `CC(C)[C@H](NC(=O)[C@H](CC(=O)O)NC(=O)[C@@H](NC(=O)[C@H](Cc1c[nH]c2ccccc12)NC(=O)c1cc(O)c(O)c(O)c1)C(C)C)C(=O)O` [Peptide 12, GA-WVDV] (Galloyl-WVDV-OH), the IC50 worked out at 0.037 µM.

Staying with this assay, now noted: Table 3; gallic acid derivatized peptides; mean of at least 3 experiments at 8 concentrations; read-out: IC50 for human P-selectin as determined by competition Elisa.
Consider `CC(C)[C@H](NC(=O)[C@H](CC(=O)O)NC(=O)[C@@H](NC(=O)[C@H](Cc1c[nH]c2ccccc12)NC(=O)c1cc(O)c(O)c(O)c1)C(C)C)C(=O)O` [Peptide 12, GA-WVDV] (Galloyl-WVDV-OH), for which the IC50 is 0.0371 µM. As to `CC(C)[C@H](NC(=O)[C@H](CC(=O)O)NC(=O)[C@@H](NC(=O)[C@H](Cc1c[nH]c2ccccc12)NC(=O)CNC(=O)c1cc(O)c(O)c(O)c1)C(C)C)C(=O)O` [Peptide 27] (Galloyl-GWVDV-OH), the IC50 came out at 0.0183 µM.

As to `CC(C)[C@H](NC(=O)[C@H](CC(=O)O)NC(=O)[C@@H](NC(=O)[C@H](Cc1c[nH]c2ccccc12)NC(=O)CCCNC(=O)c1cc(O)c(O)c(O)c1)C(C)C)C(=O)O` [Peptide 28] ({Galloyl-GABA}-WVDV-OH), the half-maximal inhibitory concentration (IC50) was found to be 0.0154 µM.

Take `CC(C)[C@H](NC(=O)[C@H](CC(=O)O)NC(=O)[C@@H](NC(=O)[C@H](Cc1c[nH]c2ccccc12)NC(=O)CCCCCNC(=O)c1cc(O)c(O)c(O)c1)C(C)C)C(=O)O` [Peptide 29] ({Galloyl-Ahx}-WVDV-OH): the IC50 is 0.0629 µM.

Regarding `CC(C)[C@H](NC(=O)[C@H](CC(=O)O)NC(=O)[C@@H](NC(=O)[C@H](Cc1c[nH]c2ccccc12)NC(=O)[C@@H]1CCCN1C(=O)c1cc(O)c(O)c(O)c1)C(C)C)C(=O)O` [Peptide 30] (Galloyl-PWVDV-OH), the IC50 was found to be 0.25 µM. Consider `CC(C)[C@H](NC(=O)[C@H](CC(=O)O)NC(=O)[C@@H](NC(=O)[C@H](Cc1c[nH]c2ccccc12)NC(=O)c1ccc(NC(=O)c2cc(O)c(O)c(O)c2)cc1)C(C)C)C(=O)O` [Peptide 31] ({Galloyl-4Abz}-WVDV-OH), for which the IC50 was over 1 µM. For `CC(C)[C@H](NC(=O)[C@H](CC(=O)O)NC(=O)[C@@H](NC(=O)[C@H](Cc1c[nH]c2ccccc12)NC(=O)c1ccc(CNC(=O)c2cc(O)c(O)c(O)c2)cc1)C(C)C)C(=O)O` [Peptide 32] ({Galloyl-4Amb}-WVDV-OH), the IC50 stood at 0.59 µM. Same read-out and setting: with `CC(C)[C@H](NC(=O)[C@H](CC(=O)O)NC(=O)[C@@H](NC(=O)[C@H](Cc1c[nH]c2ccccc12)NC(=O)[C@H]1CC[C@H](CNC(=O)c2cc(O)c(O)c(O)c2)CC1)C(C)C)C(=O)O` [Peptide 33] ({Galloyl-Trx}-WVDV-OH) the figure was 0.58 µM.

Another assay deals with T1, human P-selectin.
Experiment: not given
The conditions noted are these: Table 2; values marked b, from not pre-published European patent application 01203314.8; read-out: IC50 for human P-selectin as determined by competition Elisa; cited from earlier work.
In the case of AWVDV [Peptide A131], the IC50 was 27 µM.

As for CDVEWVDVSSLEWDLPC [TM11], the IC50 is 2 µM. For the molecule DWVDV [Peptide A129], the IC50 was 16 µM. For EWVDV [Peptide A29], the half-inhibitory concentration (IC50) is 8 µM.

With KWVDV [Peptide A130], the IC50 was 28 µM. For the molecule WVDV [Peptide A138], the IC50 was over 1000 µM.

In the next assay the target is T2, P-selectin (Homo sapiens, UniProt P16109).
T2 sequence (P16109 42-830): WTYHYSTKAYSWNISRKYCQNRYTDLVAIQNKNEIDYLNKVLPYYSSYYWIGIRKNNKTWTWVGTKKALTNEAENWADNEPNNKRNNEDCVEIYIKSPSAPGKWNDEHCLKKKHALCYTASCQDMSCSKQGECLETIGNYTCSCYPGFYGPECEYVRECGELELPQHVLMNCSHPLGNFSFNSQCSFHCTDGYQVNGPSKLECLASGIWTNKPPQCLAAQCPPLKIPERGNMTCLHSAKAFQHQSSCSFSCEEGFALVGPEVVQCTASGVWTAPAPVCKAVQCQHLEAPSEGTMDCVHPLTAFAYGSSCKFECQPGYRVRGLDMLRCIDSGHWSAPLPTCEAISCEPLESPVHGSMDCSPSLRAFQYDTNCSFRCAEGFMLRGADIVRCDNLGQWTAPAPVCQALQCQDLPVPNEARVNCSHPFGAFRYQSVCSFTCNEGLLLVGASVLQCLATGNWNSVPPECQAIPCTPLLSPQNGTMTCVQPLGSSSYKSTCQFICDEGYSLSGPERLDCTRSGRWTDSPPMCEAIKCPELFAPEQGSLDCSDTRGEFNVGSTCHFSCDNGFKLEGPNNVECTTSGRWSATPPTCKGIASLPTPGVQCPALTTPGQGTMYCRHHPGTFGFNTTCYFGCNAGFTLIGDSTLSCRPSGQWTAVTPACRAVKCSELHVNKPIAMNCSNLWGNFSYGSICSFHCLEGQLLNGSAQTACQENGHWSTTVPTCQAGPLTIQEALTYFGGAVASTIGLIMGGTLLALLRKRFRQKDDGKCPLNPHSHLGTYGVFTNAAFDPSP
Experiment: not given
The note with it: described in European patent application No. 01203314.8; read-out: affinity for P-selectin, IC50; cited from earlier work.
EWVDV [Peptide A29]: the IC50 is about 2 µM.

As usually defined, the IC50 is the concentration that gives 50% inhibition.
